Assay results from ChEMBL document CHEMBL4765432, “Design and synthesis of novel Flavone-based histone deacetylase inhibitors antagonizing activation of STAT3 in breast cancer” (Eur J Med Chem, 2020).
Calls of active or inactive are those of the source. The calls are words filed in the database; no cut-off is given here.

Experiments:
[1] = biological target: Histone deacetylase 8 (Homo sapiens, UniProt Q9BY41); assay: Inhibition of recombinant human N-terminal GST-tagged full length HDAC-8 expressed in baculovirus infected in Sf9 cells using Boc-Lys (q-Ac)-AMC as substrate incubated for 10 mins followed by substrate addition and measured after 30 mins by fluorescence based assay
[2] = test system: MDA-MB-231; assay: Induction of apoptosis in human MDA-MB-231 cells assessed as necrotic cells at 5 uM incubated for 72 hrs by annexinV-FITC and PI staining based flow cytometry analysis (reference value: 0.330 %); format: functional
[3] = test system: MDA-MB-231; assay: Induction of apoptosis in human MDA-MB-231 cells assessed as viable cells at 1 uM incubated for 72 hrs by annexinV-FITC and PI staining based flow cytometry analysis (reference value: 90.3 %); format: functional; conditions: read-out: Activity
[4] = test system: PLC; assay: Cytotoxicity against human PLC cells assessed as reduction in cell viability incubated for 48 hrs by MTT assay; format: functional, cell-based
[5] = test system: 4T1; assay: Induction of apoptosis in mouse 4T1 cells assessed as late apoptotic cells at 2.5 uM incubated for 72 hrs by annexinV-FITC and PI staining based flow cytometry analysis (reference value: 2.24 %); format: functional
[6] = biological target: Histone deacetylase 4 (Homo sapiens, UniProt P56524); assay: (§1) Inhibition of recombinant human N-terminal GST-tagged HDAC-4 (612 to end residues) expressed in baculovirus infected in Sf9 cells using Boc-Lys (q-Ac)-AMC as substrate incubated for 10 mins followed by substrate addition and measured after 30 mins by fluorescence based assay
[7] = test system: MDA-MB-231; assay: Induction of cell cycle arrest in human MDA-MB-231 cells assessed as G2/M phase accumulation at 1 uM incubated for 24 hrs by PI staining based flow cytometry analysis (reference value: 27.08 %); format: functional
[8] = test system: 4T1; assay: Induction of apoptosis in mouse 4T1 cells assessed as necrotic cells at 1 uM incubated for 72 hrs by annexinV-FITC and PI staining based flow cytometry analysis (reference value: 5.00 %); format: functional
[9] = biological target: Histone deacetylase 5 (Homo sapiens, UniProt Q9UQL6); assay: as §1, with “HDAC-5 (617” for “HDAC-4 (612”, “cells at 10 uM” for “cells”, “assay relative to control” for “assay”; conditions: time 40.0 min
[10] = Tmax in Sprague-Dawley rat at 20 mg/kg, iv measured upto 12 hrs by LC-MS/MS analysis; format: ADME, organism-based; conditions: in vivo
[11] = test system: 4T1; assay: Potency index, ratio of IC50 of SAHA to IC50 of compound for cytotoxicity against mouse 4T1 cells assessed as reduction in cell viability incubated for 48 hrs by MTT assay; format: functional
[12] = biological target: Histone deacetylase 11 (Homo sapiens, UniProt Q96DB2); assay: Inhibition of recombinant human N-terminal GST-tagged full length HDAC-11 expressed in baculovirus infected in Sf9 cells using Boc-Lys (q-Ac)-AMC as substrate incubated for 10 mins followed by substrate addition and measured after 30 mins by fluorescence based assay
[13] = test system: NCI-H1581; assay: Cytotoxicity against human NCI-1581 cells assessed as reduction in cell viability incubated for 48 hrs by MTT assay; format: functional, cell-based; conditions: NCI-H1581, 48 h
[14] = Cytotoxicity against human B16-F10 cells assessed as reduction in cell viability incubated for 48 hrs by MTT assay; format: functional, cell-based; conditions: B16-F10, 48 h
[15] = test system: 4T1; assay: Induction of apoptosis in mouse 4T1 cells assessed as late apoptotic cells at 1 uM incubated for 72 hrs by annexinV-FITC and PI staining based flow cytometry analysis (reference value: 2.24 %); format: functional
[16] = test system: SMMC-7721; assay: Cytotoxicity against human SMMC-7721 cells assessed as reduction in cell viability incubated for 48 hrs by MTT assay; format: functional, cell-based; conditions: SMMC-7721, 48 h
[17] = test system: 4T1; assay: Induction of apoptosis in mouse 4T1 cells assessed as early apoptotic cells at 2.5 uM incubated for 72 hrs by annexinV-FITC and PI staining based flow cytometry analysis (reference value: 1.65 %); format: functional
[18] = test system: 4T1; assay: Induction of apoptosis in mouse 4T1 cells assessed as early apoptotic cells at 1 uM incubated for 72 hrs by annexinV-FITC and PI staining based flow cytometry analysis (reference value: 1.65 %); format: functional
[19] = test system: MDA-MB-231; assay: Antitumor activity against human MDA-MB-231 cells xenografted in nude mouse assessed as tumor growth inhibition at 25 mg/kg, ip administered for 34 days and measured on day 34; format: functional, organism-based; conditions: time 34.0 day
[20] = test system: MDA-MB-231; assay: Induction of apoptosis in human MDA-MB-231 cells assessed as early apoptotic cells at 2.5 uM incubated for 72 hrs by annexinV-FITC and PI staining based flow cytometry analysis (reference value: 5.57 %); format: functional
[21] = test system: A549; assay: Cytotoxicity against human A549 cells assessed as reduction in cell viability incubated for 48 hrs by MTT assay; format: functional, cell-based; conditions: A549, 48 h
[22] = test system: MDA-MB-231; assay: Induction of apoptosis in human MDA-MB-231 cells assessed as necrotic cells at 1 uM incubated for 72 hrs by annexinV-FITC and PI staining based flow cytometry analysis (reference value: 0.330 %); format: functional
[23] = test system: MDA-MB-231; assay: Induction of apoptosis in human MDA-MB-231 cells assessed as viable cells at 5 uM incubated for 72 hrs by annexinV-FITC and PI staining based flow cytometry analysis (reference value: 90.3 %); format: functional; conditions: read-out: Activity
[24] = Half life in Sprague-Dawley rat at 20 mg/kg, po measured upto 12 hrs by LC-MS/MS analysis; format: ADME, organism-based; conditions: in vivo
[25] = test system: MDA-MB-468; assay: Cytotoxicity against human MDA-MB-468 cells assessed as reduction in cell viability incubated for 48 hrs by MTT assay; format: functional, cell-based; conditions: MDA-MB-468, 48 h
[26] = test system: MDA-MB-231; assay: Induction of apoptosis in human MDA-MB-231 cells assessed as increase in caspase-3 cleavage incubated for 48 hrs by Western blot analysis; format: functional, cell-based; conditions: dose 0.5-10 µM
[27] = biological target: Histone deacetylase 9 (Homo sapiens, UniProt Q9UKV0); assay: as §1, with “HDAC-9 (548” for “HDAC-4 (612”, “cells at 10 uM” for “cells”, “assay relative to control” for “assay”; conditions: time 40.0 min
[28] = test system: A-375; assay: Cytotoxicity against human A-375 cells assessed as reduction in cell viability incubated for 48 hrs by MTT assay; format: functional, cell-based; conditions: A-375, 48 h
[29] = Toxicity in C57BL/6 mouse assessed death of organism at 50 mg/kg, po observed for 20 days; format: organism-based; conditions: in vivo, 480 h, time 20 day
[30] = test system: SUM-159-PT; assay: Cytotoxicity against human SUM159PT cells assessed as reduction in cell viability incubated for 48 hrs by MTT assay; format: functional, cell-based
[31] = AUC (0 to infinity) in Sprague-Dawley rat at 20 mg/kg, iv measured upto 12 hrs by LC-MS/MS analysis; format: ADME, organism-based; set-up: route intravenous, dose 20 mg/kg, time <=12; conditions: in vivo
[32] = MRT in Sprague-Dawley rat at 20 mg/kg, po measured upto 12 hrs by LC-MS/MS analysis; format: ADME, organism-based; conditions: in vivo
[33] = test system: MDA-MB-231; assay: Cytotoxicity against human MDA-MB-231 cells assessed as reduction in cell viability incubated for 48 hrs by MTT assay; format: functional, cell-based; conditions: MDA-MB-231, 48 h

Chain of Histone deacetylase 11 (Q96DB2 whole entry): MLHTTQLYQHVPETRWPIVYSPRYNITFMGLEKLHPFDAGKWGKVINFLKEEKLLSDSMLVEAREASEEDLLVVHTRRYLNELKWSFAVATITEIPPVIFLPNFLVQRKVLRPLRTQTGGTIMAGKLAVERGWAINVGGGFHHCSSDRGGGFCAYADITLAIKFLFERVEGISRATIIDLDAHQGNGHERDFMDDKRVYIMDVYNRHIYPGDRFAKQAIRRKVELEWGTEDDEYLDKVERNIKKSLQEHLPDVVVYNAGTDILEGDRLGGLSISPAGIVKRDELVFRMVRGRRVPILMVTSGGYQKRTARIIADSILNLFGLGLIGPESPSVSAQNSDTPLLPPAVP
Chain of Histone deacetylase 5 (Q9UQL6 whole entry): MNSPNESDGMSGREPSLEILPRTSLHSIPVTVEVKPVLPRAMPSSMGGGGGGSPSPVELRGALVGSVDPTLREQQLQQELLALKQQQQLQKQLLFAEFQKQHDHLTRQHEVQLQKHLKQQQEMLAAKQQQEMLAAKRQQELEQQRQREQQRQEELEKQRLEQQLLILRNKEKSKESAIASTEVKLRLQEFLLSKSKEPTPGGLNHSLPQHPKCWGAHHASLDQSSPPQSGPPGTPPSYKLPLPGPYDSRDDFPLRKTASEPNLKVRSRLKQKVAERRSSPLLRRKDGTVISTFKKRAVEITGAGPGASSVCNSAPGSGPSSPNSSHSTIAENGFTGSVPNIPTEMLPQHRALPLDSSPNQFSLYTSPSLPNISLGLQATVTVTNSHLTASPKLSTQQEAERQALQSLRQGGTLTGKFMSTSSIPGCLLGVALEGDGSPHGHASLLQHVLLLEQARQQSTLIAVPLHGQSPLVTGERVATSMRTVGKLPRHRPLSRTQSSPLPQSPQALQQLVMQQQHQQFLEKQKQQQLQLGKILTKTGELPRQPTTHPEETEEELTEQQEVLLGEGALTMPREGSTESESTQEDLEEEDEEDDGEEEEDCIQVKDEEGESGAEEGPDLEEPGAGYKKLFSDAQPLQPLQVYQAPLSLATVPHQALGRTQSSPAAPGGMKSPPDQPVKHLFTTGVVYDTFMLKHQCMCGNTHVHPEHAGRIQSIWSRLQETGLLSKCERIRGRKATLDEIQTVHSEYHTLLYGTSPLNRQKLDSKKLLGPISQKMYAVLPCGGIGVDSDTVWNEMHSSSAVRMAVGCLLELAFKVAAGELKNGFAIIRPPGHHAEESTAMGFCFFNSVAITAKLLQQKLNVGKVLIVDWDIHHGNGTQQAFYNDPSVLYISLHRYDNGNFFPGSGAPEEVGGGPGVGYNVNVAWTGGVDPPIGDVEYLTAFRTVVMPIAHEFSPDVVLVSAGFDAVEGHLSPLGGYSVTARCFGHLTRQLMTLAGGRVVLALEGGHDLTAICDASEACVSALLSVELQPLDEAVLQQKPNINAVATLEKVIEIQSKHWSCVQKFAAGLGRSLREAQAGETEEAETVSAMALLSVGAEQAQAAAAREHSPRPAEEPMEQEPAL
Chain of Histone deacetylase 4 (P56524 whole entry): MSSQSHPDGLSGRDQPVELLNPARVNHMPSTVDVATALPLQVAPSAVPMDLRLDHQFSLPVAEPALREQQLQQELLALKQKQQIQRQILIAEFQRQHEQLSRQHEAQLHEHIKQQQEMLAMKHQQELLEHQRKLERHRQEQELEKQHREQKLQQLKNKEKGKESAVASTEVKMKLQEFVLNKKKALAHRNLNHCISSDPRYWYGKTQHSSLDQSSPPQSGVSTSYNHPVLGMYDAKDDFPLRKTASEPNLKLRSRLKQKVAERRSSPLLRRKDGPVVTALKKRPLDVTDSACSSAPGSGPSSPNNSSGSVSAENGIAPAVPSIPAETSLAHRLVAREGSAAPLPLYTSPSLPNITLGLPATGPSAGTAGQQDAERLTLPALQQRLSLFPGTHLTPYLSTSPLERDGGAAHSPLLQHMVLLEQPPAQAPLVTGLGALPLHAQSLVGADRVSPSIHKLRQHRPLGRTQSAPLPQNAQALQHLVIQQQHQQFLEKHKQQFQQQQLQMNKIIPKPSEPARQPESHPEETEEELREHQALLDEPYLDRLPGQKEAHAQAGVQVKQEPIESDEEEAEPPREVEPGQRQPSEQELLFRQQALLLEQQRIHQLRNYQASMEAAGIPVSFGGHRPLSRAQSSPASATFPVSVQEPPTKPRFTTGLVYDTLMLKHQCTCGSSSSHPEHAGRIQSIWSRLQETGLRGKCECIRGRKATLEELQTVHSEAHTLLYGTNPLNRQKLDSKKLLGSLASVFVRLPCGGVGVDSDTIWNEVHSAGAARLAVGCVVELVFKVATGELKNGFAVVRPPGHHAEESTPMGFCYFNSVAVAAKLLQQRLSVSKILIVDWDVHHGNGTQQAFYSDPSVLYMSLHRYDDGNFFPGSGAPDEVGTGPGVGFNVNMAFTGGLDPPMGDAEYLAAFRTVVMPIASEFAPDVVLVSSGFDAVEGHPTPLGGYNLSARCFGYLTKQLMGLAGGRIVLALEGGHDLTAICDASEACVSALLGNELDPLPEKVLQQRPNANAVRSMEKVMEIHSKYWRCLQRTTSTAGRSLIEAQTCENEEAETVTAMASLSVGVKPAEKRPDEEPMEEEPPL
Chain of Histone deacetylase 9 (Q9UKV0 whole entry): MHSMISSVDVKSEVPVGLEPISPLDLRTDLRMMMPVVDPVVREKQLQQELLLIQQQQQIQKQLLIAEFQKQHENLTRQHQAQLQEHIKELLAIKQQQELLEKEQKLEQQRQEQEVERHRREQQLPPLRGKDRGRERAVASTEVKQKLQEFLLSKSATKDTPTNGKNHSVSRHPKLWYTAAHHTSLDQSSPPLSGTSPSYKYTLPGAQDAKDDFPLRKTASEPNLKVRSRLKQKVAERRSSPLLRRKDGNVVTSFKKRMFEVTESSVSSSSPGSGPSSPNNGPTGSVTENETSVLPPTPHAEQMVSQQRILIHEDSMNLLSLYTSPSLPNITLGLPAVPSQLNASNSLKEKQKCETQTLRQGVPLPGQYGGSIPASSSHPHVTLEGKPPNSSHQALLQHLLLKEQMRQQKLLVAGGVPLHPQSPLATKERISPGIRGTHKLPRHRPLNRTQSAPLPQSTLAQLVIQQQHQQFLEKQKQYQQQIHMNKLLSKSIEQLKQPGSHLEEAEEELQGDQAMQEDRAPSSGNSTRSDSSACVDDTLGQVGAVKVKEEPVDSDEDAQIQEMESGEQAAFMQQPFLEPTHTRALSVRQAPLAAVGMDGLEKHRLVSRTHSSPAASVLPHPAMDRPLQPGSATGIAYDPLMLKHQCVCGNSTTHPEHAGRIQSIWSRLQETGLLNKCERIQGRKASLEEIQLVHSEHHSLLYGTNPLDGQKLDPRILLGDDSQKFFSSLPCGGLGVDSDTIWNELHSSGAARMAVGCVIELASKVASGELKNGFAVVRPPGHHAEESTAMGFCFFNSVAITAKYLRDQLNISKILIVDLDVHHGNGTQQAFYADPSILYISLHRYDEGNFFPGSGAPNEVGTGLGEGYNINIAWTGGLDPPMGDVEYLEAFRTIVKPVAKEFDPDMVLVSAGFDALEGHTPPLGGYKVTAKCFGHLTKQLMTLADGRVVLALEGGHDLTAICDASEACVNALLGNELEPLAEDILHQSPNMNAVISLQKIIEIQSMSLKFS
Chain of Histone deacetylase 8 (Q9BY41 whole entry): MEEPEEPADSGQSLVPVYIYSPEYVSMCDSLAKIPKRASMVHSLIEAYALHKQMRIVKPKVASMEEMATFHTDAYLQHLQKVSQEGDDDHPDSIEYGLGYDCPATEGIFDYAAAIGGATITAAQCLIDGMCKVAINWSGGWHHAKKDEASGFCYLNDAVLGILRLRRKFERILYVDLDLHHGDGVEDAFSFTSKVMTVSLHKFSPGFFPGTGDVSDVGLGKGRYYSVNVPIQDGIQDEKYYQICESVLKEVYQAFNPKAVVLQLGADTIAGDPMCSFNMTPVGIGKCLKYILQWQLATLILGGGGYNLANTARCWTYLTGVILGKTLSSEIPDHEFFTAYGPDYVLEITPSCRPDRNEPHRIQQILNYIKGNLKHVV

`CN(C)CCOc1ccc(-c2cc(=O)c3c(O)cc(OCCCCCC(=O)NO)cc3o2)cc1.Cl` showed an IC50 [1] of 2500 nM, an Activity [2] of 0.06% and a viability at 1 µM [3] of 64.8%. It also gave an IC50 [4] of 582 nM, an Activity [5] of 33.9% and an IC50 [6] of 307 nM. The Activity [7] was 42.82%, the Activity [8] was 3.6% and the inhibition [9] was 38%. For the same molecule, the Tmax [10] was 4.98 min, the “Ratio IC50” value [11] was 2 and the IC50 [12] was 179 nM. It also gave an IC50 [13] of 2320 nM, an IC50 [14] of 510 nM and an Activity [15] of 8.59%. For the same molecule, the IC50 [16] was 530 nM, the Activity [17] was 31.4% and the Activity [18] was 15.5%. For the same molecule, the TGI [19] was “Active”, the Activity [20] was 50.1% and the IC50 [21] was 1080 nM. For the same molecule, the Activity [22] was 0.13%, the viability at 5 µM [23] was 17.2% and the half-life [24] was 14.9 min. The IC50 [25] was 3400 nM, the Activity [26] was “Dose-dependent effect” and the inhibition [27] was 26%. The IC50 [28] was 1180 nM, the Activity [29] was “Non-Toxic” and the IC50 [30] was 277 nM. It also gave an AUC(0-inf) [31] of 2840 ng·h/mL, an MRT [32] of 65.8 min and an IC50 [33] of 2050 nM.
